The assay concerns B6C3F1 mice, B16 melanoma ip, median survival T/C. Put plainly: NCI In Vivo Anticancer Drug Screen. Data for tumor model B16 Melanoma (intraperitoneal) in B6C3F1 mice. Particulars: endpoint: median survival time, higher = longer survival. A digest of the protocol: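 Antitumor effect was judged in mice with transplanted tumors by dividing the treated group's survival measure by that of vehicle controls.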

Where [1] appears, read: dose: 1.5 mg/kg/injection, schedule: Q01DX009 (ip), vehicle: other.
[2] abbreviates: dose: 3.12 mg/kg/injection, schedule: Q01DX009 (ip), vehicle: saline with Tween-80.
[3] abbreviates: dose: 6.25 mg/kg/injection, schedule: Q01DX009 (ip), vehicle: saline.
Setting [4] is: dose: 3.12 mg/kg/injection, schedule: Q01DX009 (ip), vehicle: saline.
Setting [5] is: dose: 25.0 mg/kg/injection, schedule: Q01DX009 (ip), vehicle: saline.
The mark [6] stands for this setting: dose: 50.0 mg/kg/injection, schedule: Q01DX009 (ip), vehicle: saline.
Where [7] appears, read: dose: 100.0 mg/kg/injection, schedule: Q01DX009 (ip), vehicle: saline.
Setting [8] is: dose: 200.0 mg/kg/injection, schedule: Q01DX009 (ip), vehicle: saline.

Several values for one entry are separate records, joined by “and”; a condition that tells them apart may be missing. Equal entries are not always repeated. Toxic doses and inconclusive results are not listed.

For the compound `O=NN(CCCl)C(=O)NCCCl`, the T/C is, setting by setting: (dose: 1.5 mg/kg/injection, schedule: Q01DX009 (ip), vehicle: alcohol) 112 % of control and 118 % of control; under setting [1], 108 % of control; (dose: 3.0 mg/kg/injection, schedule: Q01DX009 (ip), vehicle: other) 116 % of control; (dose: 5.0 mg/kg/injection, schedule: Q01DX005 (iv), vehicle: saline + alcohol) 107 % of control; (dose: 6.0 mg/kg/injection, schedule: Q01DX009 (ip), vehicle: alcohol) 184 % of control; (dose: 6.0 mg/kg/injection, schedule: Q01DX009 (ip), vehicle: other) 154 % of control. Further, the T/C was 120 % of control (dose: 10.0 mg/kg/injection, schedule: Q01DX001 (ip), vehicle: saline + alcohol); 111 % of control and 120 % of control (dose: 10.0 mg/kg/injection, schedule: Q01DX001 (ip), vehicle: saline); 104 % of control (dose: 10.0 mg/kg/injection, schedule: Q01DX001 (iv), vehicle: saline + alcohol); 124 % of control (dose: 10.0 mg/kg/injection, schedule: Q01DX005 (iv), vehicle: saline + alcohol); 110 % of control (dose: 12.0 mg/kg/injection, schedule: Q01DX009 (ip), vehicle: other); 154 % of control (dose: 20.0 mg/kg/injection, schedule: Q01DX001 (ip), vehicle: saline + alcohol). Also, the T/C (dose: 30.0 mg/kg/injection, schedule: Q01DX001 (ip), vehicle: saline) is 156 % of control; the T/C (dose: 40.0 mg/kg/injection, schedule: Q01DX001 (ip), vehicle: saline + alcohol) is 175 % of control; the T/C (dose: 40.0 mg/kg/injection, schedule: Q01DX001 (iv), vehicle: saline + alcohol) is 185 % of control.

As for `CO[C@@H]1[C@H](O)CC[C@]2(CO2)[C@H]1[C@@]1(C)O[C@@H]1CC=C(C)C`, the T/C was 102 % of control and 105 % of control (dose: 1.56 mg/kg/injection, schedule: Q01DX009 (ip), vehicle: saline with Tween-80); 108 % of control and 109 % of control and 122 % of control under setting [2]; 108 % of control (dose: 3.13 mg/kg/injection, schedule: Q01DX009 (ip), vehicle: saline); 111 % of control under setting [3]; 104 % of control (dose: 100.0 mg/kg/injection, schedule: Q01DX009 (ip), vehicle: saline with Tween-80).

As to `O=C1C(O)=C(c2ccccc2)C(=O)C(O)=C1c1ccccc1`, the T/C was 109 % of control under setting [4]; 100 % of control under setting [3]; 91 % of control and 101 % of control (dose: 12.5 mg/kg/injection, schedule: Q01DX009 (ip), vehicle: saline); 109 % of control and 117 % of control under setting [5]; 108 % of control and 112 % of control under setting [6].

Consider `NC(Cc1ccc(O)c(Cl)c1)C(=O)O` (stereo not given), for which the T/C reads like this: under setting [7], 93 % of control; under setting [8], 98 % of control.

For the compound `C=C1C(=O)[C@]23C[C@H]1CC[C@H]2[C@@]12CO[C@@H](O)[C@@H]1C(C)(C)[C@@H](O)C[C@@H]2OC3=O`, the T/C runs as follows: (dose: 25.0 mg/kg/injection, schedule: Q01DX009 (ip), vehicle: saline with Tween-80) 102 % of control; (dose: 50.0 mg/kg/injection, schedule: Q01DX009 (ip), vehicle: saline with Tween-80) 102 % of control.

For the compound `Cc1cc(NCCCN(C)C)c2ccc3c(ccc4c(NCCCN(C)C)cc(C)nc43)c2n1`, the T/C runs as follows: (dose: 0.19 mg/kg/injection, schedule: Q01DX009 (ip), vehicle: saline) 114 % of control; (dose: 0.39 mg/kg/injection, schedule: Q01DX009 (ip), vehicle: saline) 102 % of control; (dose: 0.78 mg/kg/injection, schedule: Q01DX009 (ip), vehicle: saline) 91 % of control; (dose: 1.56 mg/kg/injection, schedule: Q01DX009 (ip), vehicle: saline) 106 % of control; under setting [4], 113 % of control and 102 % of control.

In the case of `ClCCCN1CCN(CCCl)CC1`, the T/C is 98 % of control (dose: 1.25 mg/kg/injection, schedule: Q01DX009 (ip), vehicle: saline); 124 % of control and 99 % of control (dose: 2.5 mg/kg/injection, schedule: Q01DX009 (ip), vehicle: saline).

Take `CC[C@@]1(O)C(=O)OCc2c1cc1n(c2=O)Cc2cc3cc(O)ccc3nc2-1`: the T/C is 155 % of control (dose: 0.37 mg/kg/injection, schedule: Q01DX009 (ip), vehicle: suspension in saline); 160 % of control (dose: 0.38 mg/kg/injection, schedule: Q01DX009 (ip), vehicle: other); 191 % of control (dose: 0.75 mg/kg/injection, schedule: Q01DX009 (ip), vehicle: other); 183 % of control (dose: 0.75 mg/kg/injection, schedule: Q01DX009 (ip), vehicle: suspension in saline); 197 % of control under setting [1]; 201 % of control (dose: 1.5 mg/kg/injection, schedule: Q01DX009 (ip), vehicle: suspension in saline). Further, the T/C (dose: 3.0 mg/kg/injection, schedule: Q01DX009 (ip), vehicle: suspension in saline) was 201 % of control.

Consider `O=C(O)CC(NC(=O)CP(=O)(O)O)C(=O)O` (stereo not given), for which the T/C is 160 % of control under setting [5]; 121 % of control (dose: 37.5 mg/kg/injection, schedule: Q01DX005 (ip), vehicle: saline); 119 % of control (dose: 37.5 mg/kg/injection, schedule: Q01DX005 (iv), vehicle: saline); 172 % of control under setting [6]; 120 % of control (dose: 75.0 mg/kg/injection, schedule: Q01DX001 (ip), vehicle: saline); 110 % of control (dose: 75.0 mg/kg/injection, schedule: Q01DX001 (iv), vehicle: saline). For the same compound, the T/C runs as follows: (dose: 75.0 mg/kg/injection, schedule: Q01DX005 (iv), vehicle: saline) 123 % of control; under setting [7], 202 % of control; (dose: 150.0 mg/kg/injection, schedule: Q01DX001 (iv), vehicle: saline) 116 % of control; (dose: 150.0 mg/kg/injection, schedule: Q01DX005 (ip), vehicle: saline) 178 % of control; (dose: 150.0 mg/kg/injection, schedule: Q01DX005 (iv), vehicle: saline) 114 % of control; under setting [8], 226 % of control. Moreover, the T/C is 115 % of control (dose: 300.0 mg/kg/injection, schedule: Q01DX001 (iv), vehicle: saline) and 163 % of control (dose: 300.0 mg/kg/injection, schedule: Q01DX005 (ip), vehicle: saline).

On to `CCCC(=O)O.CCCC(=O)O.CCCC(=O)O.CCCC(=O)O.[Rh].[Rh]`, for which the T/C reads like this: (dose: 0.03 mg/kg/injection, schedule: Q01DX009 (ip), vehicle: saline + alcohol) 100 % of control and 101 % of control; (dose: 0.06 mg/kg/injection, schedule: Q01DX009 (ip), vehicle: saline + alcohol) 103 % of control and 104 % of control; (dose: 0.12 mg/kg/injection, schedule: Q01DX009 (ip), vehicle: saline + alcohol) 100 % of control and 107 % of control; (dose: 0.25 mg/kg/injection, schedule: Q01DX009 (ip), vehicle: saline + alcohol) 98 % of control and 101 % of control; (dose: 0.5 mg/kg/injection, schedule: Q01DX009 (ip), vehicle: saline + alcohol) 101 % of control and 104 % of control; (dose: 1.0 mg/kg/injection, schedule: Q01DX009 (ip), vehicle: saline + alcohol) 108 % of control.

Take `CS(=O)(=O)Nc1ccc(C(=O)CCN2CCCCCC2)cc1`: the T/C was 122 % of control (dose: 25.0 mg/kg/injection, schedule: Q01DX009 (ip), vehicle: suspension in saline); 98 % of control (dose: 50.0 mg/kg/injection, schedule: Q01DX009 (ip), vehicle: suspension in saline); 96 % of control (dose: 100.0 mg/kg/injection, schedule: Q01DX009 (ip), vehicle: suspension in saline); 92 % of control (dose: 200.0 mg/kg/injection, schedule: Q01DX009 (ip), vehicle: suspension in saline).

In the case of `Nc1ccc(C(OC(=O)c2cc3ccccc3c(Cc3c(O)c(C(=O)OC(c4ccc(N)cc4)(c4ccc(N)cc4)c4ccc(N)cc4)cc4ccccc34)c2O)(c2ccc(N)cc2)c2ccc(N)cc2)cc1`, the T/C (dose: 0.78 mg/kg/injection, schedule: Q01DX009 (ip), vehicle: saline with Tween-80) was 112 % of control and 96 % of control; the T/C under setting [2] was 111 % of control and 107 % of control; the T/C (dose: 3.13 mg/kg/injection, schedule: Q01DX009 (ip), vehicle: saline with Tween-80) is 104 % of control.

For the origin of these results see PubChem BioAssay AID200 (DTP/NCI, 2004).
